Results reported in the NIST ThermoML archive (doi:10.1021/acs.jced.6b00092).
± gives the expanded uncertainty stated by the source.

Columns and labels:
[1] = Liquid; for mass density: 298.15 K, 101.33 kPa, Vibrating tube method; for vapor or sublimation pressure / Normal boiling temperature: Ebulliometric method (Recirculating still)
[2] = refractive index (Na D-line) (dimensionless); conditions: 298.15 K; 101.33 kPa; Liquid; Standard Abbe refractometry

mass density [1]	vapor or sublimation pressure ([1]; 442.09 K)	vapor or sublimation pressure ([1]; 453.84 K)	vapor or sublimation pressure ([1]; 462.67 K)	Normal boiling temperature [1]	refractive index [2]	vapor or sublimation pressure ([1]; 379.01 K)	vapor or sublimation pressure ([1]; 389.52 K)	vapor or sublimation pressure ([1]; 397.48 K)	Compound	vapor or sublimation pressure ([1]; 473.44 K)	vapor or sublimation pressure ([1]; 485.11 K)	vapor or sublimation pressure ([1]; 493.78 K)
915.6 ± 10 kg/m3	40 ± 7 kPa	60 ± 8 kPa	80 ± 9 kPa	197.30 ± 4 °C	1.4265 ± 0.0004	–	–	–	CC(O)CC(C)(C)O (stereo not drawn) [2-methyl-2,4-pentanediol]	–	–	–
807.3 ± 10 kg/m3	–	–	–	130.70 ± 4 °C	1.4055 ± 0.0004	40 ± 8 kPa	60 ± 12 kPa	80 ± 16 kPa	CC(C)CCO [3-methylbutan-1-ol]	–	–	–

Compound	mass density [1]	vapor or sublimation pressure ([1]; 442.09 K)	vapor or sublimation pressure ([1]; 453.84 K)	vapor or sublimation pressure ([1]; 462.67 K)	Normal boiling temperature [1]	refractive index [2]	vapor or sublimation pressure ([1]; 379.01 K)	vapor or sublimation pressure ([1]; 389.52 K)	vapor or sublimation pressure ([1]; 397.48 K)	vapor or sublimation pressure ([1]; 473.44 K)	vapor or sublimation pressure ([1]; 485.11 K)	vapor or sublimation pressure ([1]; 493.78 K)
OCCCCO [1,4-butanediol]	1012.96 ± 10 kg/m3	–	–	–	227.93 ± 4 °C	1.4447 ± 0.0004	–	–	–	40 ± 7 kPa	60 ± 8 kPa	80 ± 9 kPa
